In patent US11365188B2, “JAK inhibitors” (priority 2018, dated 2022):

Experiments:
Assay type in all cases: biochemical
[1] = target: T1, JAK3 (Homo sapiens, UniProt P52333); test: JAK3 Assay (Caliper EZ Reader, fluoresceinated peptide); details: ATP 3.5 μM; JAK3 0.5 nM; 30 minutes at room temperature; read-out: JAK3 inhibition
T1 sequence (P52333 1-1124): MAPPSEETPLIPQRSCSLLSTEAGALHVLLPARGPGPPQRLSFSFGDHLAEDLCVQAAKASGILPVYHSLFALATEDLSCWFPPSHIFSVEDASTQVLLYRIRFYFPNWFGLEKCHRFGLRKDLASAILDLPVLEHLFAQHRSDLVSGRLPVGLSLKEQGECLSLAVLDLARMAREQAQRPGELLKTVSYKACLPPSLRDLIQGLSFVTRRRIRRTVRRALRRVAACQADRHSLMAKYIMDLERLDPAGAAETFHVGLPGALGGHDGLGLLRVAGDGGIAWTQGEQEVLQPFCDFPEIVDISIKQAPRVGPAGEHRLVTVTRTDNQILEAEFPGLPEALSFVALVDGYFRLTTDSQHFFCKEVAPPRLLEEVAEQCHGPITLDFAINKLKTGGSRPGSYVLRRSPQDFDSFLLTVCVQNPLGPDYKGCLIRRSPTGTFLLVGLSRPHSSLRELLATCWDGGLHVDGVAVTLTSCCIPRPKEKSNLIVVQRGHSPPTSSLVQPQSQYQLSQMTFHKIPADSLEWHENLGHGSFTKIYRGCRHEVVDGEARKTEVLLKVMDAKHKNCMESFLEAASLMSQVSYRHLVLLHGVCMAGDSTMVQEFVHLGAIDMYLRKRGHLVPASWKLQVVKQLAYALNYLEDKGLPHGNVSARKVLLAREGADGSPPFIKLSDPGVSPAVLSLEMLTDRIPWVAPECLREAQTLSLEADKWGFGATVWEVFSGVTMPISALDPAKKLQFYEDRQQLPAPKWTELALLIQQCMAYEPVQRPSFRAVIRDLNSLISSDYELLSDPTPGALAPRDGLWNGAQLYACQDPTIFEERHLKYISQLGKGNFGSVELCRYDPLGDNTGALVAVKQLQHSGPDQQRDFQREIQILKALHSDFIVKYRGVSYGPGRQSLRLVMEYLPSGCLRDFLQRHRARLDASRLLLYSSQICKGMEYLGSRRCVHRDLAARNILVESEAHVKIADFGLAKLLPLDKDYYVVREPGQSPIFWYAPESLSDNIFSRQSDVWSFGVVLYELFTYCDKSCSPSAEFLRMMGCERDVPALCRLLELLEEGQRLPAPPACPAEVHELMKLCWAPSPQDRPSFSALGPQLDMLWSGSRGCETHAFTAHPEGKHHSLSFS

[2] = target: JAK1 (Homo sapiens, UniProt P23458); test: JAK Kinase Assay (JAK1, Caliper EZ Reader, fluoresceinated peptide); details: ATP 76.5 μM; JAK1 10 nM; 120 minutes at room temperature; read-out: JAK1 inhibition
JAK1, sequence (P23458 whole entry, species assumed): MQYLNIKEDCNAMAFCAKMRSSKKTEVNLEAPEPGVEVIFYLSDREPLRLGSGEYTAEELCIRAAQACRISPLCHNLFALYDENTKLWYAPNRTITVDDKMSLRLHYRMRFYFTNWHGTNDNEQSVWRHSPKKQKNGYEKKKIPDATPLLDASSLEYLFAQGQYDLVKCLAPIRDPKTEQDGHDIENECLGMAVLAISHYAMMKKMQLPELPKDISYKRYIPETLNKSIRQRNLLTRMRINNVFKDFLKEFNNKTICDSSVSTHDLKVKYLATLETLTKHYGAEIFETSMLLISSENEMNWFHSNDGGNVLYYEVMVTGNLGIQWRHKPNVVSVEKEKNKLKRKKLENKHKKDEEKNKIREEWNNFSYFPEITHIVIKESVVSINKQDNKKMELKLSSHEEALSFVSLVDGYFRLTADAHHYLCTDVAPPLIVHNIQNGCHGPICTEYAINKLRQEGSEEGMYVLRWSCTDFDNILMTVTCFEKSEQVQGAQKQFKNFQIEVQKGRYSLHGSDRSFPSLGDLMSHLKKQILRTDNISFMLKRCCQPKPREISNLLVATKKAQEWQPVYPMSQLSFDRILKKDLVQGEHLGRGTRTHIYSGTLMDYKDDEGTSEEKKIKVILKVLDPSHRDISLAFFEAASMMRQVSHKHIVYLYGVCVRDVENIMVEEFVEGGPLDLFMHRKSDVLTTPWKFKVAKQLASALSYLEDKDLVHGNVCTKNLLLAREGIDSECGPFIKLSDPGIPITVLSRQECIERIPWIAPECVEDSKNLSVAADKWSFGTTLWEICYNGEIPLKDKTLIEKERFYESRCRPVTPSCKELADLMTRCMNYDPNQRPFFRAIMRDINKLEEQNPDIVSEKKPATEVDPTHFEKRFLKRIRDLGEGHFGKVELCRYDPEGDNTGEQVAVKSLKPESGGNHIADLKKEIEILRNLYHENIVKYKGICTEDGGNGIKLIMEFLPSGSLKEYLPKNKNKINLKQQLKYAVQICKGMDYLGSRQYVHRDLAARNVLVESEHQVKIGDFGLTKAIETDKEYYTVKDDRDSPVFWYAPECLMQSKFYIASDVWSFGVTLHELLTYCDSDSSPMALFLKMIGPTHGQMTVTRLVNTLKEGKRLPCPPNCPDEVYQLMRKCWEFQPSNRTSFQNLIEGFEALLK

[3] = target: JAK2 (Homo sapiens, UniProt O60674); test: JAK2 Assay (Caliper EZ Reader, fluoresceinated peptide); details: ATP 11.4 μM; JAK2 0.25 nM; 15 minutes at room temperature; read-out: JAK2 inhibition
JAK2, sequence (O60674 whole entry, species assumed): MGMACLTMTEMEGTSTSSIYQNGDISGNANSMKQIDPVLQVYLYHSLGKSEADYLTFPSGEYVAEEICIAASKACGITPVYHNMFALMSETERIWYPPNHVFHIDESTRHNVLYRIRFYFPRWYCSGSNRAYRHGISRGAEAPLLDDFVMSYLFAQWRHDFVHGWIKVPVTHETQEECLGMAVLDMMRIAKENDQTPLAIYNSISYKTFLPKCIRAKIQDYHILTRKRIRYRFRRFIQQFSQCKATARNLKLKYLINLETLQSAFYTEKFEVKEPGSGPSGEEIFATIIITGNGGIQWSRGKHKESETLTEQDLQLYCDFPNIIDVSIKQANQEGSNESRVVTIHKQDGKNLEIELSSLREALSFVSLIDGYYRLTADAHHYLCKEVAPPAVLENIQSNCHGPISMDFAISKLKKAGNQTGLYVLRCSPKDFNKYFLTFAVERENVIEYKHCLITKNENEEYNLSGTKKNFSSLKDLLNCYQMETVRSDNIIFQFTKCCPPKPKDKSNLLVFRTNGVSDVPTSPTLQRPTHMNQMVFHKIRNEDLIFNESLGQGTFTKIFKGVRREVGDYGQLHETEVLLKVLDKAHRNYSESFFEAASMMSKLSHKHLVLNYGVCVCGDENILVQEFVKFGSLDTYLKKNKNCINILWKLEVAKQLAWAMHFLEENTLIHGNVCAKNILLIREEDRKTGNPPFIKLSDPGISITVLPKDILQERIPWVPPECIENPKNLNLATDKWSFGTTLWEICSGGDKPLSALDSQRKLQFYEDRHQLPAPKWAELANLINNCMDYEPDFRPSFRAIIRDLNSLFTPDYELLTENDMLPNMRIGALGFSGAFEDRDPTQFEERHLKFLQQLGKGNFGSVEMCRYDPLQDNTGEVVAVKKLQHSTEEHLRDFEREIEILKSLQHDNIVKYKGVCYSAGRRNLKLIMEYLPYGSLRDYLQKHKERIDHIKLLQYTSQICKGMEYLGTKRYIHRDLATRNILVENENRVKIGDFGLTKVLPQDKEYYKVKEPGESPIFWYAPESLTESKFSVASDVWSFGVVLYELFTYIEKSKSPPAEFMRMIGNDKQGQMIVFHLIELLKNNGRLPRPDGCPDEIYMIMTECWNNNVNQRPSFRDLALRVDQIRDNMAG

Row | SMILES | IC50 [1] [nM] | IC50 [2] [nM] | IC50 [3] [nM]
1 | CC(=O)N1CCC2(CCC(N(C)c3ncnc4[nH]ccc34)CC2)CC1 [Compound 75, 1-{9-[Methyl-(7H-pyrrolo[2,3-d]pyrimidin-4-yl)-amino]-3-aza-spiro[5.5]undec-3-yl}-ethanone] | 100 to 1000 | 10 to 100 | 10 to 100
2 | C#Cc1ccc(C(=O)N2CC3(CC(N(C)c4ncnc5[nH]ccc45)C3)C2)cc1C [Compound 40, (4-ethynyl-3-methylphenyl)(6-(methyl(7H-pyrrolo[2,3-d]pyrimidin-4-yl)amino)-2-azaspiro[3.3]heptan-2-yl)methanone] | 1000 to 10000 | ≤ 10 | 100 to 1000
3 | CN(c1ncnc2[nH]ccc12)C1CC2(C1)CN(C(=O)c1ccc(-c3ccn(C)n3)cc1)C2 [Compound 68] | 1000 to 10000 | 100 to 1000 | 1000 to 10000
4 | CN(c1ncnc2[nH]ccc12)C1CC2(C1)CN(C(=O)c1ccc(C#N)c(Cl)c1)C2 [Compound 36, 2-chloro-4-(6-(methyl(7H-pyrrolo[2,3-d]pyrimidin-4-yl)amino)-2-azaspiro[3.3]heptane-2-carbonyl)benzonitrile] | 1000 to 10000 | 10 to 100 | 1000 to 10000
5 | CCS(=O)(=O)N1CC2(CC(N(C)c3ncnc4[nH]ccc34)C2)C1 [Compound 6, N-(2-(ethylsulfonyl)-2-azaspiro[3.3]heptan-6-yl)-N-methyl-7H-pyrrolo[2,3-d]pyrimidin-4-amine] | ≥ 10000 | 100 to 1000 | 100 to 1000
6 | CN(c1ncnc2[nH]ccc12)C1CC2(C1)CN(C(=O)c1ccc(C#N)cc1Cl)C2 [Compound 37, 3-chloro-4-(6-(methyl(7H-pyrrolo[2,3-d]pyrimidin-4-yl)amino)-2-azaspiro[3.3]heptane-2-carbonyl)benzonitrile] | 1000 to 10000 | 10 to 100 | 100 to 1000
7 | CN(c1ncnc2[nH]ccc12)C1CC2(C1)CN(C(=O)c1ccc(I)cc1)C2 [Compound 38, (4-iodophenyl)(6-(methyl(7H-pyrrolo[2,3-d]pyrimidin-4-yl)amino)-2-azaspiro[3.3]heptan-2-yl)methanone] | 1000 to 10000 | 10 to 100 | 100 to 1000
8 | CN(c1ncnc2[nH]ccc12)C1CC2(C1)CN(C(=O)c1ccn(C)n1)C2 [Compound 50, (6-(methyl(7H-pyrrolo[2,3-d]pyrimidin-4-yl)amino)-2-azaspiro[3.3]heptan-2-yl)(1-methyl-1H-pyrazol-3-yl)methanone] | ≥ 10000 | 100 to 1000 | ≥ 10000
9 | CN(c1ncnc2[nH]ccc12)C1CC2(C1)CN(C(=O)CCS(C)(=O)=O)C2 [Compound 16, 1-(6-(methyl(7H-pyrrolo[2,3-d]pyrimidin-4-yl)amino)-2-azaspiro[3.3]heptan-2-yl)-3-(methylsulfonyl)propan-1-one] | 1000 to 10000 | 100 to 1000 | 1000 to 10000
10 | CN(c1ncnc2[nH]ccc12)C1CCC2(CC1)CCN(C(=O)c1cccnc1)CC2 [Compound 80, {9-[Methyl-(7H-pyrrolo[2,3-d]pyrimidin-4-yl)-amino]-3-aza-spiro[5.5]undec-3-yl}-pyridin-3-yl-methanone] | 100 to 1000 | 100 to 1000 | 100 to 1000
11 | CN(c1ncnc2[nH]ccc12)C1CC2(C1)CN(C(=O)c1ccc(C#N)nc1)C2 [Compound 35, 5-(6-(methyl(7H-pyrrolo[2,3-d]pyrimidin-4-yl)amino)-2-azaspiro[3.3]heptane-2-carbonyl)picolinonitrile] | 1000 to 10000 | 10 to 100 | 1000 to 10000
12 | CN(c1ncnc2[nH]ccc12)C1CCC2(CC1)CCN(C(=O)Cc1ccc(C#N)cc1)CC2 [Compound 85, 4-(2-{9-[Methyl-(7H-pyrrolo[2,3-d]pyrimidin-4-yl)-amino]-3-aza-spiro[5.5]undec-3-yl}-2-oxo-ethyl)-benzonitrile] | 100 to 1000 | 10 to 100 | 100 to 1000
13 | CCC(=O)N1CCC2(CCC(N(C)c3ncnc4[nH]ccc34)CC2)CC1 [Compound 78, 1-{9-[Methyl-(7H-pyrrolo[2,3-d]pyrimidin-4-yl)-amino]-3-aza-spiro[5.5]undec-3-yl}-propan-1-one] | 1000 to 10000 | 100 to 1000 | 100 to 1000
14 | CN(c1ncnc2[nH]ccc12)C1CCC2(CC1)CCN(C(=O)C1(C#N)CC1)CC2 [Compound 89, 1-{9-[Methyl-(7H-pyrrolo[2,3-d]pyrimidin-4-yl)-amino]-3-aza-spiro[5.5]undecane-3-carbonyl}-cyclopropanecarbonitrile] | 1000 to 10000 | 100 to 1000 | 100 to 1000
15 | CN(c1ncnc2[nH]ccc12)C1CC2(C1)CN(C(=O)c1cc[nH]n1)C2 [Compound 45, (6-(methyl(7H-pyrrolo[2,3-d]pyrimidin-4-yl)amino)-2-azaspiro[3.3]heptan-2-yl)(1H-pyrazol-3-yl)methanone] | ≥ 10000 | 1000 to 10000 | 1000 to 10000
16 | COC(=O)N1CC2(CC(N(C)c3ncnc4[nH]ccc34)C2)C1 [Compound 7, methyl 6-(methyl(7H-pyrrolo[2,3-d]pyrimidin-4-yl)amino)-2-azaspiro[3.3]heptan-2-carboxylate] | 1000 to 10000 | 100 to 1000 | 1000 to 10000
17 | CN(c1ncnc2[nH]ccc12)C1CCC2(CC1)CCN(S(=O)(=O)CC(F)(F)F)CC2 [Compound 103, Methyl-(7H-pyrrolo[2,3-d]pyrimidin-4-yl)-[3-(2,2,2-trifluoro-ethanesulfonyl)-3-aza-spiro[5.5]undec-9-yl]-amine] | 100 to 1000 | 10 to 100 | 100 to 1000
18 | CN(c1ncnc2[nH]ccc12)C1CCC2(CC1)CCN(C(=O)CCS(C)(=O)=O)CC2 [Compound 86, 3-Methanesulfonyl-1-{9-[methyl-(7H-pyrrolo[2,3-d]pyrimidin-4-yl)-amino]-3-aza-spiro[5.5]undec-3-yl}-propan-1-one] | 1000 to 10000 | 100 to 1000 | 100 to 1000
19 | CN(c1ncnc2[nH]ccc12)C1CC2(C1)CN(C(=O)C1(C#N)CC1)C2 [Compound 19, 1-(6-(methyl(7H-pyrrolo[2,3-d]pyrimidin-4-yl)amino)-2-azaspiro[3.3]heptane-2-carbonyl)cyclopropanecarbonitrile] | 1000 to 10000 | 10 to 100 | 100 to 1000
20 | CN(c1ncnc2[nH]ccc12)C1CCC2(CC1)CCN(C(=O)c1cc3ccccc3[nH]1)CC2 [Compound 95, (1H-Indol-2-yl)-{9-[methyl-(7H-pyrrolo[2,3-d]pyrimidin-4-yl)-amino]-3-aza-spiro[5.5]undec-3-yl}-methanone] | 100 to 1000 | 100 to 1000 | 100 to 1000
21 | CN(c1ncnc2[nH]ccc12)C1CC2(C1)CN(C(=O)C1CCC(=O)CC1)C2 [Compound 12, 4-(6-(methyl(7H-pyrrolo[2,3-d]pyrimidin-4-yl)amino)-2-azaspiro[3.3]heptane-2-carbonyl)cyclohexanone] | 1000 to 10000 | 10 to 100 | 100 to 1000
22 | CCS(=O)(=O)N1CCC2(CCC(N(C)c3ncnc4[nH]ccc34)CC2)CC1 [Compound 76, (3-Ethanesulfonyl-3-aza-spiro[5.5]undec-9-yl)-methyl-(7H-pyrrolo[2,3-d]pyrimidin-4-yl)-amine] | 1000 to 10000 | 100 to 1000 | 100 to 1000
23 | CCC(=O)N1CC2(CC(N(C)c3ncnc4[nH]ccc34)C2)C1 [Compound 5, 1-(6-(methyl(7H-pyrrolo[2,3-d]pyrimidin-4-yl)amino)-2-azaspiro[3.3]heptan-2-yl)propan-1-one] | 1000 to 10000 | 100 to 1000 | 100 to 1000
24 | CN(c1ncnc2[nH]ccc12)C1CC2(C1)CN(C(=O)c1cccc(C(F)(F)F)c1)C2 [Compound 13, (6-(methyl(7H-pyrrolo[2,3-d]pyrimidin-4-yl)amino)-2-azasprio[3.3]heptan-2-yl)(3-(trifluoromethyl)phenyl)methanone] | 1000 to 10000 | 100 to 1000 | 1000 to 10000
25 | CN(c1ncnc2[nH]ccc12)C1CCC2(CC1)CCN(C(=O)c1cccc(C(F)(F)F)c1)CC2 [Compound 83, {9-[Methyl-(7H-pyrrolo[2,3-d]pyrimidin-4-yl)-amino]-3-aza-spiro[5.5]undec-3-yl}-(3-trifluoromethyl-phenyl)-methanone] | 1000 to 10000 | 100 to 1000 | 100 to 1000
